# Laboratory results as given in patent US6432405B1, “Method of inhibiting HIV infection with CD44 and anti-CD44 antibodies” (Duke University, priority 1991, dated 2002).
# Entries after “also recorded” stand apart in the source; their conditions may differ.
# Experiments:
# HIV-1Ba.L = experiment: HIV-1 infection of human monocytes in vitro (cytopathology/polykaryon formation, supernatant reverse transcriptase); type: cell-based; settings: for effect on HIV-1-induced cytopathology and supernatant RT (in words): human monocytes inoculated with HIV-1Ba.L, three weeks of culture
# Source text: This aspect of the present invention provides a new method, based on a separate molecular pathway, of blocking HIV infection. The invention is based, at least in part, on Applicants' observation that CD44 (the hyaluronate receptor) facilitates HIV infection/expression in human cells. When this molecule is “blocked”by binding to the anti-CD44 antibody […] or AlG3, there is a 40-80% reduction of HIV infection/expression in normal human monocytes in vitro, as determined by inhibition of monocyte polykaryon formation and expression of viral reverse transcriptase in supernatant medium. […] To determine the importance of other monocyte cellular surface molecules in in vitro infection with HIV-1, the abilities of various murine monoclonal antibodies directed toward different monocyte membrane antigens to influence HIV-1 infection of human monocytes in vitro were determined. Monocytes from normal people were isolated by density gradients, adherence, and washing. Cells were inoculated with HIV-1Ba.L. […] three weeks of culture for reverse transcriptase (RT) activity, and the plates were examined morphologically. Antibodies AlG3 and […]
# PBMC (T cells) = experiment: T cell activation assay: CD2 mAb-stimulated PBMC proliferation; type: cell-based, human; settings: compared to the results with CD44 liposomes; data not shown
# Protocol: CD44 (A3D8) and control YgGl (P3X63/Ag8) antibodies were conjugated to CNBr-activated SEPHAROSE CL 4B (Pharmacia, Piscataway, N.J.) (3.0 mg IgG/ml gel). HuT 78 T Cell (CD44+) lysate was solubilized from 5×10^9 cells in 50 ml buffer (300 mM NaCl, 10 mM Na2HPO4 pH 7.4, 0.2% NaN3w/v 0.5% NP-40 v/v), 0.01% Tween 80 w/v, 0.2 mM phenylmethylsulfonyl fluoride, and 0.1 mM tosyl L-lysine chloromethyl ketone) (0° C.×30 min), centrifuged (4° C. 3000×g×15 min, 23420 ×g×30 min) filtered, precleared×2 over a P3-SEPHAROSE column, and allowed to bind overnight (4° C.) to A3D8-SEPHAROSE. The column was washed with 5 column volumes equilibration buffer, followed by 5 column volumes of 50 mM Tris, pH 7.4, 0.5% NP-40. NP-40 was exchanged for octyl glucoside (OG) (Sigma, St. Louis, Mo.) by washing with 2 column volumes 50 mM Tris pH 7.4, 1.5% OG w/v. […]
# Liposomes were prepared by the method of Mimms et al ((1981) Biochemistry 20:833-840), using 1 μM purified CD44 or control glycophorin protein, 1 nM L-α-dioleoyl lecthin (Avanti Polar Lipids, Birmingham, Ala.), and 240 nM OG. Liposomes were analyzed for content of the appropriate protein using a novel labelling technique and flow cytometry. […] Fluoresceinated liposome-bead conjugates were then analyzed by flow cytometry. […]
Substance,effect on HIV-1-induced cytopathology and supernatant RT (in words) (HIV-1Ba.L),"reduction/inhibition of HIV infection/expression (HIV-1Ba.L; normal human monocytes in vitro, by inhibition of monocyte polykaryon formation and viral reverse transcriptase in supernatant medium)",effect on CD2 stimulated PBMC cultures (in words) (PBMC (T cells))
Chondroitin sulfate,no effect; also recorded: no or minimal inhibitory activity,,
hyaluronic acid [hyaluronate],diminished morphological changes and RT expression,up to 85%,
"soluble, free CD44 protein: CD44 protein affinity-purified from HuT 78 T cell lysate on A3D8-Sepharose, 80-85 kD",,,Identical results
